Data: patent US20180149652A1, “ELECTRICAL CELL-SUBSTRATE IMPEDANCE SENSOR (ECIS)” (priority 2018, published 2018)

Experiments:
MCF-7 cells = assay: SiNW-ECIS impedance and capacitance response of MCF-7 cells to antitubulin drugs; type: cell-based, human; details: MCF-7 on SiNW electrodes, PTX 0.1 nano-moles per liter; for normalized capacitance change versus control sample / normalized impedance change versus control sample: 2 hours (T1) after drug incubation; for normalized capacitance change versus control sample / normalized impedance change versus control sample / change in electrical impedance with respect to control sample / norm of capacitive changes, control sample more than drug value / change of norm in impedance of treated cells, T1 vs. T2: ABZ 2.1 nano-moles per liter; for change in electrical impedance with respect to control sample / norm of capacitive changes, control sample more than drug value: 6 hours (T2) after drug incubation
Protocol: In this example, the diagnostic response of cells membrane to extremely low dose of antitubulin drugs is investigated. Initially, MCF-7 cell lines, isolated from grade I human breast tumors, were obtained from the National Cell Bank of Iran (Pasteur Institute). Then, cells were maintained in a CO2 incubator (37° C., 5% CO2) in RPMI-1640 medium supplemented with 5% fetal bovine serum, and 1% penicillin/streptomycin. The fresh medium was replaced every other day. Then, the cultured cells were dropped on the surface of the SiNW-ECIS, designed and fabricated pursuant to teachings of the present application. Prior to each experiment, cells were trypsinized to be detached from the substrate and resuspended on the SiNW surface. To minimize the effect of trypsinization, the procedure may last for less than 4 minutes at room temperature of about 20° C. The samples were held in an incubator for about 4 hours to achieve cells attachment on the SiNWs. Thereafter, the ABZ drug with low concentrations of about 2.1 nano-moles per liter and the PTX drug with low concentrations of about 0.1 nano-moles per liter were added to individual samples. Finally, the signal recording and biological assays were investigated about 2 hours and 6 hours after the drug treatment (6 hours and 10 hours after the beginning of culturing process).
Referring to FIGS. 12A-12G, comparative normalized diagrams of impedance (designated by ΔZ% and represented by solid black lines) and capacitance changes (designated by ΔC% and represented by dashed grey lines) are illustrated for MCF-7 cells seeded on SiNW electrodes after treating by 2.1 nano-moles per liter of ABZ and 0.1 nano-moles per liter of PTX. The time interval between the drug incubation and the signal extraction are 2 hours (designated by T1) and 6 hours (designated by T2). In addition, the same diagrams are plotted for control sample prepared with no drug treatment stage.
According to the method described in the present example, the samples were maintained in an incubator so that the signal extraction was repeated 10 hours after cells dropping (6 hours after drug incubation for treated samples) to monitor the time evolution of drug induced MT polymerization/depolymerization on bioelectrical response of the membrane.

[1] = system: tubulin assemblies of MCF-7 cells; assay: Confocal microscopy of tubulin assemblies of MCF-7 cells; type: cell-based, human; details: ABZ 2.1 nano-moles per liter, PTX 0.1 nano-moles per liter
Protocol: In addition, an un-treated control sample was prepared as reference for comparison. Then, samples were washed with PBS and permeabilized with microtubule stabilizing buffer [80 mM PIPES-KOH (pH 6.8), 5 mM EGTA, and 1 mM MgCl2 containing 0.5% Triton X-100] for 5 min at room temperature before being fixed with chilled absolute methanol for 10 min at −20° C. Thereafter, the fixed cells were washed and incubated with monoclonal mouse anti-α-tubulin antibody (Sigma Co.) for 1 hour at room temperature followed by incubation with FITC-conjugated antimouse IgG antibody (Santa Cruz Biotechnology). The stained cells were mounted with Vectashield (Vector Laboratories, Burlingame, Calif.) and observed by confocal microscopy.

[2] = between 2 hours (T1) and 6 hours (T2) after drug incubation

Row | SMILES | normalized capacitance change versus control sample (MCF-7 cells) | normalized impedance change versus control sample (MCF-7 cells) | change in electrical impedance with respect to control sample (MCF-7 cells) | norm of capacitive changes, control sample more than drug value (MCF-7 cells) | change of norm in impedance of treated cells, T1 vs. T2 (MCF-7 cells; [2]) | spindle / microtubule appearance in confocal image ([1]; MCF-7, 2 hours after treatment) | spindle / microtubule appearance in confocal image ([1]; MCF-7, 6 hours after treatment) | time dependent variation in capacitive behavior, T1 vs. T2 (MCF-7 cells; [2])
1 | CCCSc1ccc2nc(NC(=O)OC)[nH]c2c1 [ABZ, Albendazole] | 70% | 25% | about 90% | about 90% | about 60% | abnormally reduced numbers of spindles or monopolar (monoaster) spindles | still the monoastered MTs are observable | 
2 | CC(=O)O[C@H]1C(=O)[C@@]2(C)[C@H]([C@H](OC(=O)c3ccccc3)[C@]3(O)C[C@H](OC(=O)[C@H](O)[C@@H](NC(=O)c4ccccc4)c4ccccc4)C(C)=C1C3(C)C)[C@]1(OC(C)=O)CO[C@@H]1C[C@@H]2O [PTX, Paclitaxel] | about 60% | about 50% | about 30% | ~75% | 15% | aggregated spindles | increased aggregation in MT spindles is noticeable | about 85%
